# From PubChem BioAssay (NCI)
#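 These data come from cells grown in 96-well plates and exposed to compound for 48 hours at five concentrations. Abbreviation: GI50, concentration required for 50% inhibition of growth. TGI is the concentration that stops growth completely.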
# Key:
# Test in all cases: inhibition of tumour cell growth, NCI panel, 48 h
# SK-MEL-5 melanoma = tested on: SK-MEL-5 melanoma
# A549 NSCLC = tested on: A549 NSCLC
# UO-31 renal = tested on: UO-31 renal
# MCF7 breast = tested on: MCF7 breast
# SF-539 CNS = tested on: SF-539 CNS
# HS 578T breast = tested on: HS 578T breast
# LOX IMVI melanoma = tested on: LOX IMVI melanoma
# PC-3 prostate = tested on: PC-3 prostate
# NCI/ADR-RES ovarian = tested on: NCI/ADR-RES ovarian
# HT29 colon = tested on: HT29 colon
# SNB-75 CNS = tested on: SNB-75 CNS
# TK-10 renal = tested on: TK-10 renal
# OVCAR-3 ovarian = tested on: OVCAR-3 ovarian
# HOP-62 NSCLC = tested on: HOP-62 NSCLC
# NCI-H522 lung = tested on: NCI-H522 lung
# MOLT-4 leukemia = tested on: MOLT-4 leukemia
# DU-145 prostate = tested on: DU-145 prostate
# A498 renal = tested on: A498 renal
# OVCAR-4 ovarian = tested on: OVCAR-4 ovarian
# IGROV1 ovarian = tested on: IGROV1 ovarian
# RPMI-8226 leukemia = tested on: RPMI-8226 leukemia
# HCT-116 colon = tested on: HCT-116 colon
# HCC-2998 colon = tested on: HCC-2998 colon
# SN12C renal = tested on: SN12C renal
# EKVX NSCLC = tested on: EKVX NSCLC
# 786-0 renal = tested on: 786-0 renal
# HL-60(TB) leukemia = tested on: HL-60(TB) leukemia
# SW-620 colon = tested on: SW-620 colon
# HOP-92 NSCLC = tested on: HOP-92 NSCLC
# ACHN renal = tested on: ACHN renal
compound,measurement,setting,value
CC12CCC3(CCC(=O)NCCCNc4ccnc5cc(Cl)ccc45)[C@@](C)(OO[C@]3(C)O1)O2,GI50,SK-MEL-5 melanoma,4.36 µM
same,TGI,SK-MEL-5 melanoma,17.2 µM
same,GI50,A549 NSCLC,2.99 µM
same,TGI,A549 NSCLC,> 25.5 µM
same,GI50,UO-31 renal,1.43 µM
same,TGI,UO-31 renal,6.78 µM
same,GI50,MCF7 breast,1.68 µM
same,TGI,MCF7 breast,> 25.5 µM
same,GI50,SF-539 CNS,3.38 µM
same,TGI,SF-539 CNS,7.38 µM
same,GI50,HS 578T breast,3 µM
same,TGI,HS 578T breast,14.1 µM
same,GI50,LOX IMVI melanoma,1.34 µM
same,TGI,LOX IMVI melanoma,4.71 µM
same,GI50,PC-3 prostate,6.72 µM
same,TGI,PC-3 prostate,> 25.5 µM
same,GI50,NCI/ADR-RES ovarian,5.84 µM
same,TGI,NCI/ADR-RES ovarian,19.4 µM
same,GI50,HT29 colon,6.19 µM
same,TGI,HT29 colon,23.3 µM
same,GI50,SNB-75 CNS,0.618 µM
same,TGI,SNB-75 CNS,3.77 µM
same,GI50,TK-10 renal,1.23 µM
same,TGI,TK-10 renal,11.3 µM
same,GI50,OVCAR-3 ovarian,3.61 µM
same,TGI,OVCAR-3 ovarian,10.8 µM
same,GI50,HOP-62 NSCLC,1.41 µM
same,TGI,HOP-62 NSCLC,6.48 µM
same,GI50,NCI-H522 lung,3.02 µM
same,TGI,NCI-H522 lung,6.79 µM
same,GI50,MOLT-4 leukemia,4.68 µM
same,TGI,MOLT-4 leukemia,14.3 µM
same,GI50,DU-145 prostate,3.42 µM
same,TGI,DU-145 prostate,11.9 µM
same,GI50,A498 renal,3.86 µM
same,TGI,A498 renal,22.7 µM
same,GI50,OVCAR-4 ovarian,4.89 µM
same,TGI,OVCAR-4 ovarian,> 25.5 µM
same,GI50,IGROV1 ovarian,2.8 µM
same,TGI,IGROV1 ovarian,8.22 µM
same,GI50,RPMI-8226 leukemia,5.86 µM
same,TGI,RPMI-8226 leukemia,> 25.5 µM
same,GI50,HCT-116 colon,3.71 µM
same,TGI,HCT-116 colon,13.3 µM
same,GI50,HCC-2998 colon,8.01 µM
same,TGI,HCC-2998 colon,> 25.5 µM
same,GI50,SN12C renal,2.14 µM
same,TGI,SN12C renal,12.2 µM
same,GI50,EKVX NSCLC,1.99 µM
same,TGI,EKVX NSCLC,19.4 µM
same,GI50,786-0 renal,1.79 µM
same,TGI,786-0 renal,8.62 µM
same,GI50,HL-60(TB) leukemia,4.94 µM
same,TGI,HL-60(TB) leukemia,11.7 µM
same,GI50,SW-620 colon,3.62 µM
same,TGI,SW-620 colon,> 25.5 µM
same,GI50,HOP-92 NSCLC,1.47 µM
same,TGI,HOP-92 NSCLC,12 µM
same,GI50,ACHN renal,1.16 µM
